In patent US20090286831A1, “VR1 Receptor Ligands and u-Opioid Receptor Ligands for the Treatment of Pain” (priority 2006, published 2009):

Key:
Type in all cases: in vivo, rat
rats [1] = assay: Tail-flick (hot beam) test in rats
Experimental: (§1) Sprague Dawley rats (140-160 g body weight) were used for the following animal models. Sprague Dawley rats (140-160 g body weight) from a commercial breeder (Janvier, Genest St. Isle, France) were used. The animals were kept under standard conditions: light-dark rhythm (06:00 to 18:00 h light, 18:00 to 06:00 h dark), room temperature 19-23° C., relative air humidity 45-65%, air exchange 19 times per hour, air movement <0.2 m/s, free choice of tap water and standard feed, Macrolon Type 4 cages with 5 animals per cage. The solutions of the test substances and/or vehicles (10% […], 5% Cremophor EL, 5% glucose) were administered intravenously.
The analgesic efficacy of the test compounds was examined in the hot beam (tail flick) test in rats using the method of D'Amour and Smith (J. Pharm. Exp. Ther. 1941, 72, 74-79). The time from switching on the lamp (8V/50 W) to the sudden flicking away of the tail from the hot beam (pain latency) was measured by means of a semiautomatic apparatus (tail-flick Analgesiemeter Type 50/08/1.bc, Labtec, Dr. Hess, Germany). The lamp intensity was adjusted before conducting the experiments so that the time from switching on the lamp to the sudden flicking away of the tail (pain latency) amounted to 3-5 seconds in untreated animals. The lamp was automatically switched off after 12 seconds to avoid tissue damage to the rat's tail. The pain latency was measured 10, 20, 40 and 60 min after intravenous administration. The analgesic effect was determined as increase in pain latency (% MPE) according to the following formula: […]
In this case, T0 is the latency time before and T1 the latency time after substance application, T2 is the maximum exposure time (12 sec). Results of the analgesia study in the tail-flick test in rats:
The following experiments of Example 2 relate to binding studies and the analgesic efficacy of the compounds with dual mode of action according to the invention. The experiments comprise the determination of the (f)Ki value at the TPRV1 receptor, the Ki value at the μ-opioid receptor and the hypothermia assay in mice. The tail-flick test for the compounds [1], [4], [7] and [10] according to the invention was conducted in a similar manner to the above-described method (cf. Example 1, experiment 1).

[2] = tested on: rats after spinal nerve ligature; assay: Mono-neuropathic pain after spinal nerve ligature (Chung model), electronic von Frey
Experimental: as §1
Under pentobarbital narcosis (Narcoren®, […] i.p., Merial GmbH, Hallbergmoos, Germany), the L5, L6 spinal nerves were firmly bound. The left L5 and L6 spinal nerves were exposed by removing a piece of paravertebral muscle and a portion of the left spinal process of the L5 lumbar vertebral body. The L5 and L6 spinal nerves were carefully isolated and bound with a firm ligature (NC silk, black, USP 5/0, metric 1, Braun Melsungen AG, Melsungen, Germany) (Kim and Chung, An experimental model for peripheral neuropathy produced by segmental spinal nerve ligature in the rat, Pain, 50, 1992, 355-363). After haemostasis was determined, the muscle and adjacent tissue were sutured and the wound closed by metal clamps. After a one-week recovery period the animals were placed in cages with a wire base closed to the top by a plastic hood for measurement of the mechanical allodynia. The animals were kept in this cage until their explorative behaviour had decreased.
The threshold for the tactile allodynia was measured by means of an electronic von Frey anaesthesiometer (Somedic AB, Malmö, Sweden). The animals were randomly divided into groups of 10 animals. Each group received an individual dose of test substance or vehicle and the measurements were conducted 0.5 h before application and at various times after intravenous administration. Both the ipsi- and the contra-lateral rear paw were tested. The median of five stimulations gave a measured data point. The data were determined as % maximum possible effect (% MPE) from the pre-tests of the Chung individual animals (=0% MPE) and the test values of an independent sham control group (=100% MPE). The effect of the test substance and the vehicle was calculated for each measurement time (i.e. 0.5, 1 and 3 h after application) as inter-individual % MPE value. […] The corresponding threshold values are given in gram (mean±SEM).

rats [3] = assay: Tail-flick (hot beam) test in rats; remark: listed apart in the source
[4] = AMG-9810 2.15 mg/kg i.v. group, Control (pre-test 0.5 h before application)
[5] = AMG-9810 2.15 mg/kg i.v., 30 min
[6] = AMG-9810 2.15 mg/kg i.v., 60 min
[7] = AMG-9810 2.15 mg/kg i.v., 180 min
[8] = Morphine 1.0 mg/kg i.v. group, Control (pre-test 0.5 h before application)
[9] = Morphine 1.0 mg/kg i.v., 30 min
[10] = Morphine 1.0 mg/kg i.v., 60 min
[11] = Morphine 1.0 mg/kg i.v., 180 min
[12] = Morphine 2.0 mg/kg i.v. group, Control (pre-test 0.5 h before application)
[13] = Morphine 2.0 mg/kg i.v., 30 min
[14] = Morphine 2.0 mg/kg i.v., 60 min
[15] = Morphine 2.0 mg/kg i.v., 180 min

## CC(C)(C)c1ccc(/C=C/C(=O)Nc2ccc3c(c2)OCCO3)cc1 [AMG-9810]
Rats [1]; AMG-9810 10 mg/kg i.v., 10 min
  % MPE (increase in pain latency), mean: 26.36 % MPE
Rats [1]; AMG-9810 10 mg/kg i.v., 20 min
  % MPE (increase in pain latency), mean: 11.44 % MPE
Rats [1]; AMG-9810 10 mg/kg i.v., 60 min
  % MPE (increase in pain latency), mean: −4.06 % MPE
[2]; [4]
  pull-away threshold value, contra-lateral rear paw, mean: 57.79 gram
  pull-away threshold value, ipsi-lateral rear paw, mean: 23.23 gram
[2]; [5]
  pull-away threshold value, contra-lateral rear paw, mean: 55.91 gram
  pull-away threshold value, ipsi-lateral rear paw, mean: 32.27 gram
[2]; [6]
  pull-away threshold value, contra-lateral rear paw, mean: 52.4 gram
  pull-away threshold value, ipsi-lateral rear paw, mean: 31.18 gram
[2]; [7]
  pull-away threshold value, contra-lateral rear paw, mean: 57.38 gram
  pull-away threshold value, ipsi-lateral rear paw, mean: 26.94 gram
Rats [3]; AMG-9810 10 mg/kg i.v., 40 min
  % MPE (increase in pain latency), mean: 4.38 % MPE

## CN1CC[C@]23c4c5ccc(O)c4O[C@H]2[C@@H](O)C=C[C@H]3[C@H]1C5 [Morphine, morphine]
Rats [1]; Morphine 0.4 mg/kg i.v., 10 min
  % MPE (increase in pain latency), mean: 26.51 % MPE
Rats [1]; Morphine 0.4 mg/kg i.v., 60 min
  % MPE (increase in pain latency), mean: 4.23 % MPE
Rats [1]; combination of two threshold doses of the same opioid
  antinociceptive efficacy (conclusion): additive antinociceptive efficacy
[2]; [8]
  pull-away threshold value, contra-lateral rear paw, mean: 56.81 gram
  pull-away threshold value, ipsi-lateral rear paw, mean: 23.63 gram
[2]; [9]
  pull-away threshold value, contra-lateral rear paw, mean: 67.87 gram
  pull-away threshold value, ipsi-lateral rear paw, mean: 32.13 gram
[2]; [10]
  pull-away threshold value, contra-lateral rear paw, mean: 60.95 gram
  pull-away threshold value, ipsi-lateral rear paw, mean: 27.65 gram
[2]; [11]
  pull-away threshold value, contra-lateral rear paw, mean: 54.63 gram
  pull-away threshold value, ipsi-lateral rear paw, mean: 30.67 gram
[2]; [12]
  pull-away threshold value, contra-lateral rear paw, mean: 58.39 gram
  pull-away threshold value, ipsi-lateral rear paw, mean: 24.37 gram
[2]; [13]
  pull-away threshold value, contra-lateral rear paw, mean: 82.83 gram
  pull-away threshold value, ipsi-lateral rear paw, mean: 48.44 gram
[2]; [14]
  pull-away threshold value, contra-lateral rear paw, mean: 74.68 gram
  pull-away threshold value, ipsi-lateral rear paw, mean: 44.87 gram
[2]; [15]
  pull-away threshold value, contra-lateral rear paw, mean: 59.93 gram
  pull-away threshold value, ipsi-lateral rear paw, mean: 39.19 gram
[2]; combination of two threshold doses of the same opioid, pull away increased on ipsi- and contra-lateral paw
  efficacy (conclusion): additive antinociceptive efficacy
Rats [3]; Morphine 0.4 mg/kg i.v., 20 min
  % MPE (increase in pain latency), mean: 23.62 % MPE
Rats [3]; Morphine 0.4 mg/kg i.v., 40 min
  % MPE (increase in pain latency), mean: 14.1 % MPE
Rats [3]; Morphine 0.8 mg/kg i.v., 10 min
  % MPE (increase in pain latency), mean: 45.31 % MPE
Rats [3]; Morphine 0.8 mg/kg i.v., 20 min
  % MPE (increase in pain latency), mean: 45.02 % MPE
Rats [3]; Morphine 0.8 mg/kg i.v., 40 min
  % MPE (increase in pain latency), mean: 25.86 % MPE
Rats [3]; Morphine 0.8 mg/kg i.v., 60 min
  % MPE (increase in pain latency), mean: 14.62 % MPE
